Assays:
[1] = system: STAT3; assay: STAT3 phosphorylation, Western blot; format: cell-based, mouse; conditions: E14 cells
Experimental: (§1) E14 ES Cell Cultures. Cells were grown in ES-IMDM media (Lonza, Walkersville, Md.) in a feeder-free condition. ES-IMDM was supplemented with 15% serum, 10^5 U/100 ml of LIF (ESGRO, Millipore, Calif.) and 0.0124% monothioglycerol (MTG; Sigma Aldrich). Cells were grown for 3-5 days with change of medium every day. For inducing differentiation in monolayer culture and to determine the effect of Gö6983 in preventing differentiation, E14 cells were cultured on gelatin-coated plastics for 8 days without LIF. Details of experiments performed at clonal-density are described herein. To maintain E14 cells with Gö6983, serum supplemented ES-IMDM was used in the presence of 5 μM Gö6983 and was passed after every 3-5 days. For all assays involving elucidation of different signaling mechanism responsible for maintenance of pluripotency, cells from a ˜70% confluent ES culture plate were washed two times with 1× phosphate-buffered saline (PBS), trypsinized and plated on a 6-well tissue culture plate and treated with or without LIF or Gö6983 or different inhibitors for ˜10 hours followed by preparation of protein lysates and RNA. The PKCζ knocked-down E14 cells that were generated in this study were maintained in serum supplemented ES-IMDM on gelatin-coated plates in the absence of Gö6983 or LIF or any other inhibitor and passed after 3-5 days. […]

[2] = system: GSK-3α or GSK-3β; assay: GSK3 phosphorylation in mESCs; format: cell-based, mouse
Experimental: as §1

[3] = system: E14 cells; assay: Growth under serum free condition (N2B27 medium); format: cell-based, mouse
Experimental: Growth Under Serum Free Condition. E14 cells were maintained in serum-free N2B27 medium containing DMEM/F12 (Invitrogen), Neurobasal media (Invitrogen), B27 supplement (Invitrogen), N2 supplement (Invitrogen), BSA fraction V (Invitrogen), 2-mercaptoethanol (Sigma) and LIF/BMP4 (R&D Systems, Minneapolis, Minn.) with change of medium on alternate days and passed in every 2-4 days. For experiments with Gö6983, ˜5×10^4 E14 cells were plated on each well of a gelatin-coated 6-well plate having N2B27 medium without LIF/BMP4 and with or without 5 μM Gö6983 and cultured for 3-4 days before passing. Cells were analyzed for expression of different markers (by RT-PCR or immunofluorescence study). For experiments at clonal density, initially, E14 cells were cultured at high density in N2B27 medium with Gö6983 alone for 4 passages, then ˜200 cells were plated in each wells of a 96-well plate with Gö6983 in N2B27 and cultured for 7 more days. After 7 days, colonies were analyzed for Oct4 staining.

[4] = system: E14 ES cells; assay: ES cell differentiation on collagen IV and with retinoic acid; format: cell-based, mouse
Excerpt: ES Cell Differentiation on Collagen-IV and With Retinoic Acid. To differentiate ES cells in monolayer culture on collagen IV, around 3×10^4 cells per well were transferred to collagen IV-coated 6-well plates (BD Biosciences, Franklin Lakes, N.J.) cultured for 5 days in ES differentiation medium containing DMEM (Invitrogen), 15% FBS (selected for endothelial differentiation, Stem Cell Technologies, Vancouver, BC), sodium pyruvate and L-glutamine with or without LIF and Gö6983, and were recovered by cell dissociation buffer (BD Biosciences, Franklin Lakes, N.J.). For culturing multiple passages with Gö6983 on collagen-IV, the recovered cells were again plated at a density of ˜3×10^4 cells per well and cultured again for 5 days. […] For RA-induced differentiation on monolayer culture, ES cells were treated with all-trans-retinoic acid (Sigma, St. Louis, Mo.) in ethanol at a concentration of 1 μM with or without LIF and Gö6983 for 6 days followed by study of expression of pluripotency markers (by immunofluorescence or western blot or RT-PCR analysis).

[5] = system: E14 ES cells; assay: Cell Proliferation Assay; format: cell-based; conditions: Mus musculus
Experimental: Cell Proliferation Assay. E14 ES cells were seeded and incubated for 2 days in the presence of different concentrations of Gö6983. Cell proliferation was measured with […] 96 AQUEOUS One Solution Reagent (Promega, Madison, Wis.) following the manufacturer's protocol.

[6] = system: canonical Wnt reporter (TOPFLASH reporter); assay: TOPFLASH luciferase reporter assay; format: cell-based, mouse; conditions: mESCs
Experimental: TOPFLASH Luciferase Reporter Assay. […] were transfected with 0.5 μg of SUPER8XTOPFlash and 20 ng of phRL Renilla luciferase vectors per well using LIPOFECTAMINE (Invitrogen). Transfected cells were cultured with or without LIF, or Wnt3a-conditioned medium, or with Gö6983, and luciferase activity was measured after 48 hours of transfection using Dual-Luciferase Reporter Assay System (Promega).

[7] = system: Eed−/− ES cells; assay: Eed−/− ES cells on collagen IV without LIF
Excerpt: Eed^−/− ES Cells. Eed^−/− ES cells, passage 4, were maintained in same medium as mentioned for Ezh2^−/− cells but supplemented with extra LIF (2000 U/ml) to suppress spontaneous differentiation.

With COc1ccc2c(c1)c(C1=C(c3c[nH]c4ccccc34)C(=O)NC1=O)cn2CCCN(C)C [Gö6983, 3-[1-[3-(dimethylamino)propyl]5-methoxy-1H-indol-3-yl]-4-(1H-indol-3-yl)-1H-pyrrole-2,5-dione] the STAT3 phosphorylation [1] was “did not induce”, the “phosphorylation of GSK-3α or GSK-3β” value [2] was “did not significantly change” and the “cell survival when propagated at clonal density in N2B27 medium” value ([3]; N2B27 medium plus Gö6983, clonal density) was “poor”. The “induction of inhibitor-of-differentiation genes” value ([3]; N2B27 without serum, LIF, BMP4, FIG. 1C) was “not associated with the induction of inhibitor-of-differentiation genes”, the “undifferentiated state in N2B27 medium” value ([3]; without serum, LIF and BMP4) was “could be maintained in an undifferentiated state” and the “multidifferentiation potential upon withdrawal of Gö6983” value ([4]; ES cells maintained five passages with Gö6983, then withdrawal, FIG. 1E) was “readily formed EBs or differentiated on collagen IV with induction of lineage-specific gene expression”. For the same compound, the “ES cell differentiation in the presence of collagen IV or retinoic acid” value ([4]; absence of LIF) was “inhibited ES cell differentiation”, the “lineage-specific gene expression on collagen IV” value ([4]; quantitative RT-PCR, FIG. 1D) was “repression of lineage-specific gene expression” and the “differentiation during continuous culture on collagen IV plates” value ([4]; without LIF, up to 8 consecutive passages) was “without any noticeable differentiation”. For the same compound, the inhibition at 2.5 µM [5] was about 30%, the TOPFLASH reporter activity [6] was “did not induce” and the “colony morphology and pluripotency markers of Eed−/− cells” value ([7]; collagen IV without LIF) was “largely maintained undifferentiated colony morphology and expression of pluripotency markers”. The “expression of developmental regulator genes in Eed−/− cells” value ([7]; in the presence of Gö6983) was “significantly induced”.

Reference: patent US8193235B2, “Compositions and methods for establishing and maintaining stem cells in an undifferentiated state” (University of Kansas, priority 2009, dated 2012)
